{"source": "patent US7022315B2", "about": "“Administration of a thiol-based chemoprotectant compound” (Oregon Health & Science University, priority 2000, dated 2006)", "key": {"[1]": {"assay": "Radiolabeled NAC tissue delivery by route of administration", "format": "in vivo, rat", "conditions": "for 14C-NAC found in brain: Example 10", "experimental": "Radiolabeled NAC in combination with unlabeled low dose NAC (140 mg/kg) or high dose NAC (1200 mg/kg) was administered to rats with the following routes of infusion: i.v. (open bars), intra-arterially into the right carotid artery (striped bars), intra-arterial via the left carotid artery with left internal artery occlusion (aortic infusion) (black bars), and intra-arterial (right carotid) with BBBD (cross hatched bars). Radiolabel in tissue homogenates is expressed as the mean and standard error of the % administered dose of 14C-NAC per gram of tissue (n=3 rats per group). Significant differences from i.v. delivery are indicated by *P<0.05 and **P<0.001.\nIn this experiment, radiolabeled NAC was administered to rats by three different routes. Liver and kidney tissue, in addition to the ipsilateral and contralateral hemispheres of the brain, were analyzed for radioactivity. Results are shown as the percent of the injected radioactive dose per gram of tissue. Route indicates intravenous (i.v.), intra-arterial into the right carotid artery (i.a.), or left carotid with internal artery occlusion and aortic infusion (left carotid aortic infusion). The left carotid aortic infusion intra-arterial method uses descending aorta placement of the catheter tip and NAC administration.\nThis example tested whether the inventive method for intra-arterial infusion (via the left carotid artery, with left internal artery occlusion) could reduce brain delivery of NAC and increase systemic delivery. Brain delivery was 0.04% of the injected dose with the inventive method (n=2).\nThe method of administration of NAC and its biodistribution was tested. Intra-arterial infusion retrograde via the left external carotid artery, with transient left internal artery occlusion, was evaluated as a mechanism to essentially perfuse via the descending aorta with limited delivery to the brain. […] The serum concentration of NAC 10 min after administration of 1200 mg/kg was 2.4 0.6 mg/ml (n=6) as determined by radiolabel remaining in the blood."}, "LX-1 SCLC cells": {"system": "LX-1 SCLC cells", "assay": "cells", "conditions": "for EC50: average ± pooled sd of two experiments", "experimental": "Cytotoxicity was assessed in cultured LX-1 SCLC cells, 1×10^4 cells per well in 96 well plates, using the WST colorometric assay. […] Chemoprotectant was added at the indicated concentration of N-acetylcysteine shown in FIG. 3A or D-methionine shown in FIG. 3B either alone (n) or immediately following chemotherapy. Data are expressed as the percentage of live cells compared to untreated control samples (without chemotherapy) and each point represents the mean±standard deviation of 4 wells.\nThe dose/response for rescue from chemotherapy cytotoxicity was evaluated for four different small molecular weight sulfur containing chemoprotectants.\nChemotherapy agents were fixed at the 90% lethal dose for each agent. Each EC50 measurement comprised 6 concentrations with 4 wells per concentration, and each dose response was performed twice for each protectant. EC50 concentrations, in μg/ml are reported as the average±pooled standard deviation for two independent experiments."}, "GM294 human fibroblasts": {"system": "GM294 human fibroblasts", "assay": "Cytoenhancement and chemoprotection in fibroblasts, WST assay", "format": "cell-based", "conditions": "independent of BSO treatment; 1000 μg/ml", "experimental": "Cytotoxicity was assessed in GM294 human fibroblasts, 1×10^4 cells per well in 96 well plates, using the WST colorometric assay. […] Data are expressed as the percentage of live cells compared to control samples (without chemotherapy) and each point represents the mean±s.d. of 4 wells."}, "[2]": {"system": "Caspase-2 activity in B.5 LX-1 cells", "assay": "Caspase-2 enzymatic activity (apoptosis)", "format": "cell-based", "experimental": "FIGS. 7A and 7B show the effect of cytoenhancement and chemoprotection on apoptosis. […] Apoptosis was assessed in cultured LX-1 SCLC cells pretreated for 18 hours with or without 100 μM BSO. The experimental conditions were no addition (open bars), melphalan (10 μg/ml, striped bars) or melphalan (10 μg/ml) plus N-acetylcysteine (1000 μg/ml) (cross hatched bars) for 20 h prior to harvest. Caspase-2 activity is expressed as percentage activity in untreated control samples (mean±standard deviation, n=3). TUNEL staining is expressed as the percentage of cells showing positive staining.\nApoptosis was evaluated by measuring Caspase-2 enzymatic activity and by in situ TUNEL staining. […] The increase in caspase activity was variable between experiments and ranged from 50–100% at 7–8 h to 250–600% at 20–24 h after treatment with melphalan. […] In the experiment shown in FIG. 7B, TUNEL staining after melphalan treatment was positive in 29 of 3643 cells, compared to 7 of 4395 cells in the untreated control, and BSO treatment prior to melphalan increased the positive staining to 800 of 1699 cells. […] In both assays, activity was maximal with low doses of melphalan, or with a 1 hour pulse treatment with the doses used in the cytotoxicity assays.\nSamples of the cells used in the caspase and TUNEL assays were also evaluated for membrane permeability by trypan blue exclusion."}, "rats": {"system": "rats", "assay": "Protection against chemotherapy-induced myelosuppression, nadir blood counts", "format": "in vivo, rat", "conditions": "for White Cell Nadir: mean ± SE", "experimental": "FIGS. 10A–10D show the results of tests on chemoprotection for chemotherapy-induced myelosuppression. Rats received tri-drug chemotherapy (Carboplatin 200 mg/m2, etoposide phosphate 100 mg/m2, melphalan 10 mg/m2), with (triangles, squares) or without (circles) chemoprotection. Blood counts were determined prior to chemotherapy, at the blood nadir (6 days), and in the recovery phase (9 days after treatment). Chemoprotection was with NAC (1200 mg/kg) administered via aortic infusion 30 min prior to chemotherapy (triangles) or NAC prior to chemotherapy and STS (8 g/m2) immediately after chemotherapy (squares). In FIG. 10B and FIG. 10D animals received BSO (10 mg/kg i.p.×3 d) prior to treatment with chemotherapy. […] Significant difference from the no protectant groups were determined by Wilcoxon/Kruskal-Walliis rank sums tests (*p<0.05, **p<0.01).\nChemoprotection against chemotherapy-induced bone marrow toxicity was determined in BSO treated and untreated animals given i.a. carboplatin, etoposide phosphate, and melphalan. NAC with or without STS was administered either about 30 minutes prior to chemotherapy or immediately after chemotherapy, and was administered either i.v. or by aortic infusion."}, "[3]": {"conditions": "route left carotid aortic infusion, n=2"}, "[4]": {"conditions": "Table 7, no BSO, aortic infusion post chemo"}, "[5]": {"conditions": "Table 7, no BSO, i.v. 30 min prior"}, "[6]": {"conditions": "Table 7, no BSO, i.v. post chemo"}, "[7]": {"conditions": "Table 8, BSO pretreatment, aortic infusion post chemo"}}, "note": "Where two headings read alike, the source gives them in different places. Marks after values point to notes of the source that are not given here."}
{"smiles": "CC(=O)N[C@@H](CS)C(=O)O", "note": "[NAC, N-acetylcysteine]", "values": [{"measurement": "serum concentration of NAC", "setting": "[1]; 10 min after administration of 1200 mg/kg, radiolabel remaining in the blood, n=6", "result": 2.4, "unit": "mg/mL"}, {"measurement": "14C-NAC found in brain", "setting": "[1]; aortic infusion", "result": "minimized brain delivery"}, {"measurement": "14C-NAC found in brain", "setting": "[1]; i.v.", "result": "negligible amounts"}, {"measurement": "14C-NAC found in brain", "setting": "[1]; intra-arterial, right internal carotid artery", "result": "high levels of radiolabel in the right cerebral hemisphere"}, {"measurement": "liver and kidney delivery with aortic infusion", "setting": "[1]; high dose (1200 mg/kg) NAC, data not shown", "result": "no change in liver and kidney delivery"}, {"measurement": "Brain delivery", "setting": "[1]; intra-arterial infusion via the left carotid artery with left internal artery occlusion, n=2", "result": "0.04 % of the injected dose"}, {"measurement": "liver and kidney delivery with aortic infusion", "setting": "[1]; low dose of NAC (140 mg/kg)", "result": "decreased liver delivery and increased kidney delivery"}, {"measurement": "left hem", "setting": "[1]; route i.a. into the right carotid artery, n=3", "result": "0.03% of the injected radioactive dose per gram of tissue"}, {"measurement": "left hem", "setting": "[1]; route i.v., left brain hemisphere, n=2", "result": "0.02% of the injected radioactive dose per gram of tissue"}, {"measurement": "kidney", "setting": "[1]; route i.v., n=2", "result": "0.72% of the injected radioactive dose per gram of tissue"}, {"measurement": "liver", "setting": "[1]; route i.v., n=2", "result": "0.59% of the injected radioactive dose per gram of tissue"}, {"measurement": "kidney", "setting": "[1]; [3]", "result": "1.42% of the injected radioactive dose per gram of tissue"}, {"measurement": "left hem", "setting": "[1]; [3]", "result": "0.04% of the injected radioactive dose per gram of tissue"}, {"measurement": "liver", "setting": "[1]; [3]", "result": "0.29% of the injected radioactive dose per gram of tissue"}, {"measurement": "right hem", "setting": "[1]; [3]", "result": "0.04% of the injected radioactive dose per gram of tissue"}, {"measurement": "reduction of the cytotoxicity of each alkylator", "setting": "LX-1 SCLC cells", "result": "75–90%"}, {"measurement": "relative effectiveness among the thiol agents tested", "setting": "LX-1 SCLC cells; on a μg/ml basis", "result": "most effective"}, {"measurement": "EC50", "setting": "LX-1 SCLC cells; read-out: Chemoprotective agent EC50, protection against carboplatin 200 μg/ml (about 90% lethal dose)", "result": "200 ± 15", "unit": "µg/mL"}, {"measurement": "EC50", "setting": "LX-1 SCLC cells; read-out: Chemoprotective agent EC50, protection against cisplatin 15 μg/ml (about 90% lethal dose)", "result": "151 ± 15", "unit": "µg/mL"}, {"measurement": "EC50", "setting": "LX-1 SCLC cells; read-out: Chemoprotective agent EC50, protection against melphalan 20 μg/ml (about 90% lethal dose)", "result": "74 ± 18", "unit": "µg/mL"}, {"measurement": "chemoprotection against melphalan, cisplatin and carboplatin cytotoxicity", "setting": "GM294 human fibroblasts", "result": "partially to completely chemoprotective"}, {"measurement": "effect on cisplatin- or carboplatin-induced caspase activity", "setting": "[2]", "result": "no reduction in caspase enzymatic activity could be detected"}, {"measurement": "effect on melphalan-induced Caspase-2 activity", "setting": "[2]; melphalan 10 μg/ml, N-acetylcysteine 1000 μg/ml", "result": "reduced"}, {"measurement": "White Cell Nadir", "setting": "rats; Table 7, no BSO, aortic infusion 30 min prior (1200 mg/kg), N=6", "result": "69.7 ± 19.3% of baseline"}, {"measurement": "Granulocyte Nadir", "setting": "rats; [4]", "result": "36.6 ± 17.0% of baseline"}, {"measurement": "Platelet Nadir", "setting": "rats; [4]", "result": "26.8 ± 9.3% of baseline"}, {"measurement": "White Cell Nadir", "setting": "rats; Table 7, no BSO, aortic infusion post chemo, N=6", "result": "25.9 ± 4.9% of baseline"}, {"measurement": "Granulocyte Nadir", "setting": "rats; [5]", "result": "93.5 ± 28.1% of baseline"}, {"measurement": "Platelet Nadir", "setting": "rats; [5]", "result": "53.3 ± 12.7% of baseline"}, {"measurement": "White Cell Nadir", "setting": "rats; Table 7, no BSO, i.v. 30 min prior, N=8", "result": "51.4 ± 9.4% of baseline"}, {"measurement": "Granulocyte Nadir", "setting": "rats; [6]", "result": "57.9 ± 8.8* percent of baseline"}, {"measurement": "Platelet Nadir", "setting": "rats; [6]", "result": "36.8 ± 10.4% of baseline"}, {"measurement": "White Cell Nadir", "setting": "rats; Table 7, no BSO, i.v. post chemo, N=6", "result": "46.0 ± 6.5* percent of baseline"}, {"measurement": "Platelet Nadir", "setting": "rats; Table 8, BSO pretreatment, aortic infusion 30 min prior", "result": "23.1 ± 6.2% of baseline"}, {"measurement": "White Cell Nadir", "setting": "rats; Table 8, BSO pretreatment, aortic infusion 30 min prior, N=9", "result": "20.1 ± 2.7% of baseline"}, {"measurement": "Granulocyte Nadir", "setting": "rats; [7]", "result": "19.8 ± 14.7% of baseline"}, {"measurement": "Platelet Nadir", "setting": "rats; [7]", "result": "11.7 ± 3.5% of baseline"}, {"measurement": "White Cell Nadir", "setting": "rats; Table 8, BSO pretreatment, aortic infusion post chemo, N=7", "result": "13.9 ± 4.2% of baseline"}]}
